HELM strings list units from the 5' end as sugar, base in round brackets, then linkage (d deoxyribose, r ribose, m 2'-O-methyl, p phosphodiester). Strings are as the collection lists them; they lack the last nucleoside at the 3' end of the tested compound. [moe] = 2'-O-(2-methoxyethyl) (MOE); [sp] = phosphorothioate linkage; [m5C] = 5-methylcytosine

In this data set the target is LRRK2. The data set can be described thus: mouse, dose not given. The following applies: ASO.
“RNA1{[moe](T)[sp].[moe](G)p.[moe]([m5C])p.[moe](T)p.[moe]([m5C])[sp].d(T)[sp].d([m5C])[sp].d(T)[sp].d(T)[sp].d(T)[sp].d([m5C])[sp].d(T)[sp].d([m5C])[sp].d(A)[sp].d([m5C])[sp].[moe](A)p.[moe](T)p.[moe](A)[sp].[moe]([m5C])}$$$$ (last 3' nucleoside missing)” registered a 3 h FOB score of 0 score 0-7.
The figure for “RNA1{[moe](T)[sp].[moe](T)p.[moe](A)[sp].[moe](A)[sp].[moe](A)[sp].d(A)[sp].d(T)[sp].d([m5C])[sp].d(T)[sp].d(T)[sp].d([m5C])[sp].d(A)[sp].d(G)[sp].d(T)[sp].d(T)[sp].[moe]([m5C])[sp].[moe]([m5C])p.[moe](T)[sp].[moe](T)}$$$$ (last 3' nucleoside missing)” is 0 score 0-7; for “RNA1{[moe](T)[sp].[moe](T)p.[moe](A)[sp].[moe](A)[sp].[moe]([m5C])[sp].d(A)[sp].d(A)[sp].d(T)[sp].d(A)[sp].d(T)[sp].d([m5C])[sp].d(A)[sp].d(T)[sp].d(A)[sp].d(T)[sp].[moe](A)[sp].[moe](A)p.[moe](T)[sp].[moe]([m5C])}$$$$ (last 3' nucleoside missing)” it is 0 score 0-7.
Turning to “RNA1{[moe](T)[sp].[moe](T)p.[moe](G)[sp].[moe](G)[sp].[moe]([m5C])[sp].d(T)[sp].d(G)[sp].d(G)[sp].d(A)[sp].d(A)[sp].d(A)[sp].d(T)[sp].d(G)[sp].d(A)[sp].d(G)[sp].[moe](T)[sp].[moe](G)p.[moe]([m5C])[sp].[moe](A)}$$$$ (last 3' nucleoside missing)”, the 3 h FOB score was 6 score 0-7.
The substance “RNA1{[moe](T)[sp].[moe](T)p.[moe](G)[sp].[moe]([m5C])[sp].[moe](T)[sp].d(G)[sp].d([m5C])[sp].d(T)[sp].d([m5C])[sp].d(A)[sp].d(T)[sp].d(A)[sp].d(T)[sp].d([m5C])[sp].d(T)[sp].[moe](A)[sp].[moe](A)p.[moe](A)[sp].[moe](G)}$$$$ (last 3' nucleoside missing)” gave a 3 h FOB score of 3 score 0-7.
Consider “RNA1{[moe](T)[sp].[moe](T)p.[moe](T)[sp].[moe]([m5C])[sp].[moe](A)[sp].d(T)[sp].d(T)[sp].d([m5C])[sp].d(G)[sp].d(G)[sp].d(T)[sp].d(T)[sp].d(A)[sp].d(T)[sp].d(A)[sp].[moe](A)[sp].[moe](G)p.[moe](G)[sp].[moe]([m5C])}$$$$ (last 3' nucleoside missing)”, for which the 3 h FOB score stood at 7 score 0-7.
For the substance “RNA1{[moe](T)[sp].[moe](T)p.[moe]([m5C])[sp].[moe](A)[sp].[moe](T)[sp].d(A)[sp].d(G)[sp].d([m5C])[sp].d(T)[sp].d(T)[sp].d([m5C])[sp].d([m5C])[sp].d(A)[sp].d([m5C])[sp].d([m5C])[sp].[moe](A)[sp].[moe]([m5C])p.[moe](A)[sp].[moe](A)}$$$$ (last 3' nucleoside missing)”, the 3 h FOB score turned out to be 5 score 0-7.
Substance “RNA1{[moe](T)[sp].[moe](T)p.[moe]([m5C])[sp].[moe](A)[sp].[moe](T)[sp].d(T)[sp].d([m5C])[sp].d(G)[sp].d(G)[sp].d(T)[sp].d(T)[sp].d(A)[sp].d(T)[sp].d(A)[sp].d(A)[sp].[moe](G)[sp].[moe](G)p.[moe]([m5C])[sp].[moe](A)}$$$$ (last 3' nucleoside missing)” displayed a 3 h FOB score of 6 score 0-7.
With “RNA1{[moe](T)[sp].[moe](T)p.[moe]([m5C])p.[moe](A)p.[moe](G)[sp].d(T)[sp].d(T)[sp].d([m5C])[sp].d([m5C])[sp].d(T)[sp].d(T)[sp].d([m5C])[sp].d(A)[sp].d(G)[sp].d(T)[sp].[moe]([m5C])p.[moe](T)p.[moe]([m5C])[sp].[moe](A)}$$$$ (last 3' nucleoside missing)”, the 3 h FOB score came to 4 score 0-7.
For the substance “RNA1{[moe](T)[sp].[moe](T)p.[moe]([m5C])p.[moe](A)p.[moe](T)[sp].d(T)[sp].d([m5C])[sp].d(G)[sp].d(G)[sp].d(T)[sp].d(T)[sp].d(A)[sp].d(T)[sp].d(A)[sp].d(A)[sp].[moe](G)p.[moe](G)p.[moe]([m5C])[sp].[moe](A)}$$$$ (last 3' nucleoside missing)”, the 3 h FOB score came out at 4 score 0-7.
Regarding “RNA1{[moe](T)[sp].[moe]([m5C])p.[moe](A)[sp].[moe](T)[sp].[moe](T)[sp].d([m5C])[sp].d(G)[sp].d(G)[sp].d(T)[sp].d(T)[sp].d(A)[sp].d(T)[sp].d(A)[sp].d(A)[sp].d(G)[sp].[moe](G)[sp].[moe]([m5C])p.[moe](A)[sp].[moe]([m5C])}$$$$ (last 3' nucleoside missing)”, the 3 h FOB score came out at 7 score 0-7.
The figure for “RNA1{[moe](T)[sp].[moe]([m5C])p.[moe](A)p.[moe](G)p.[moe](T)[sp].d(T)[sp].d([m5C])[sp].d([m5C])[sp].d(T)[sp].d(T)[sp].d([m5C])[sp].d(A)[sp].d(G)[sp].d(T)[sp].d([m5C])[sp].[moe](T)p.[moe]([m5C])p.[moe](A)[sp].[moe](A)}$$$$ (last 3' nucleoside missing)” is 4 score 0-7; for “RNA1{[moe](T)[sp].[moe]([m5C])p.[moe](A)p.[moe]([m5C])p.[moe]([m5C])[sp].d(A)[sp].d([m5C])[sp].d(A)[sp].d(A)[sp].d(A)[sp].d([m5C])[sp].d(T)[sp].d([m5C])[sp].d(A)[sp].d(T)[sp].[moe](G)p.[moe](G)p.[moe](A)[sp].[moe]([m5C])}$$$$ (last 3' nucleoside missing)” it is 3 score 0-7.
The substance “RNA1{[moe](T)[sp].[moe]([m5C])p.[moe](T)[sp].[moe](T)[sp].[moe]([m5C])[sp].d(A)[sp].d(G)[sp].d(T)[sp].d(T)[sp].d([m5C])[sp].d([m5C])[sp].d(T)[sp].d(T)[sp].d([m5C])[sp].d(A)[sp].[moe](G)[sp].[moe](T)p.[moe]([m5C])[sp].[moe](T)}$$$$ (last 3' nucleoside missing)” showed a 3 h FOB score of 3 score 0-7.
Substance “RNA1{[moe](T)[sp].[moe]([m5C])p.[moe](T)p.[moe](T)p.[moe]([m5C])[sp].d(A)[sp].d(G)[sp].d(T)[sp].d(T)[sp].d([m5C])[sp].d([m5C])[sp].d(T)[sp].d(T)[sp].d([m5C])[sp].d(A)[sp].[moe](G)p.[moe](T)p.[moe]([m5C])[sp].[moe](T)}$$$$ (last 3' nucleoside missing)” registered a 3 h FOB score of 3 score 0-7.
On to “RNA1{[moe]([m5C])[sp].[moe](A)p.[moe](A)[sp].[moe](G)[sp].[moe](T)[sp].d([m5C])[sp].d([m5C])[sp].d(A)[sp].d(A)[sp].d(A)[sp].d(T)[sp].d(G)[sp].d(T)[sp].d(G)[sp].d(T)[sp].[moe]([m5C])[sp].[moe](A)p.[moe](A)[sp].[moe](A)}$$$$ (last 3' nucleoside missing)”, for which the 3 h FOB score worked out at 7 score 0-7.
Regarding “RNA1{[moe]([m5C])[sp].[moe](A)p.[moe](T)[sp].[moe](T)[sp].[moe]([m5C])[sp].d(G)[sp].d(G)[sp].d(T)[sp].d(T)[sp].d(A)[sp].d(T)[sp].d(A)[sp].d(A)[sp].d(G)[sp].d(G)[sp].[moe]([m5C])[sp].[moe](A)p.[moe]([m5C])[sp].[moe](A)}$$$$ (last 3' nucleoside missing)”, the 3 h FOB score was 7 score 0-7.
As for “RNA1{[moe]([m5C])[sp].[moe](A)p.[moe](T)p.[moe](A)p.[moe](A)[sp].d(G)[sp].d(T)[sp].d(T)[sp].d(T)[sp].d([m5C])[sp].d(A)[sp].d(T)[sp].d(T)[sp].d([m5C])[sp].d(G)[sp].[moe](G)p.[moe](T)p.[moe](T)[sp].[moe](A)}$$$$ (last 3' nucleoside missing)”, the 3 h FOB score stood at 5 score 0-7.
The result for “RNA1{[moe]([m5C])[sp].[moe](G)p.[moe]([m5C])[sp].[moe](A)[sp].[moe]([m5C])[sp].d(T)[sp].d(T)[sp].d(A)[sp].d(A)[sp].d([m5C])[sp].d(A)[sp].d(A)[sp].d(T)[sp].d(A)[sp].d(T)[sp].[moe]([m5C])[sp].[moe](A)p.[moe](T)[sp].[moe](A)}$$$$ (last 3' nucleoside missing)” reads 1 score 0-7; that for “RNA1{[moe]([m5C])[sp].[moe](G)p.[moe]([m5C])p.[moe](A)p.[moe]([m5C])[sp].d(T)[sp].d(T)[sp].d(A)[sp].d(A)[sp].d([m5C])[sp].d(A)[sp].d(A)[sp].d(T)[sp].d(A)[sp].d(T)[sp].[moe]([m5C])p.[moe](A)p.[moe](T)[sp].[moe](A)}$$$$ (last 3' nucleoside missing)”, 0 score 0-7.
Consider “RNA1{[moe]([m5C])[sp].[moe](T)p.[moe](G)[sp].[moe](T)[sp].[moe](T)[sp].d(A)[sp].d(T)[sp].d(T)[sp].d([m5C])[sp].d(T)[sp].d(G)[sp].d(A)[sp].d(T)[sp].d([m5C])[sp].d(A)[sp].[moe]([m5C])[sp].[moe](A)p.[moe]([m5C])[sp].[moe](G)}$$$$ (last 3' nucleoside missing)”, for which the 3 h FOB score is 5 score 0-7.
Consider “RNA1{[moe]([m5C])[sp].[moe](T)p.[moe](G)[sp].[moe](T)[sp].[moe]([m5C])[sp].d(A)[sp].d([m5C])[sp].d([m5C])[sp].d(T)[sp].d(T)[sp].d(T)[sp].d([m5C])[sp].d([m5C])[sp].d([m5C])[sp].d(A)[sp].[moe](A)[sp].[moe](T)p.[moe](G)[sp].[moe]([m5C])}$$$$ (last 3' nucleoside missing)”, for which the 3 h FOB score was found to be 3 score 0-7.
Substance “RNA1{[moe]([m5C])[sp].[moe](T)p.[moe](T)[sp].[moe](T)[sp].[moe]([m5C])[sp].d(A)[sp].d(T)[sp].d(A)[sp].d(G)[sp].d([m5C])[sp].d(T)[sp].d(T)[sp].d([m5C])[sp].d([m5C])[sp].d(A)[sp].[moe]([m5C])[sp].[moe]([m5C])p.[moe](A)[sp].[moe]([m5C])}$$$$ (last 3' nucleoside missing)” came in with a 3 h FOB score of 3 score 0-7.
“RNA1{[moe]([m5C])[sp].[moe](T)p.[moe](T)[sp].[moe]([m5C])[sp].[moe](A)[sp].d(G)[sp].d(T)[sp].d(T)[sp].d([m5C])[sp].d([m5C])[sp].d(T)[sp].d(T)[sp].d([m5C])[sp].d(A)[sp].d(G)[sp].[moe](T)[sp].[moe]([m5C])p.[moe](T)[sp].[moe]([m5C])}$$$$ (last 3' nucleoside missing)” showed a 3 h FOB score of 6 score 0-7.

For the origin of these results see the OligoGym collection.
